{"source": "patent US11963962B2", "about": "“Platelet count-agnostic methods of treating myelofibrosis” (Sierra Oncology, Inc., priority 2018, dated 2024)", "key": {"myelofibrosis [1]": {"system": "myelofibrosis", "assay": "SIMPLIFY-2 Phase 3 trial: splenic response rate (SRR)", "type": "in vivo, human", "details": "for SRR Absolute risk difference (Newcombe 95% CI): MMB vs Control", "source_text": "In the SIMPLIFY-2 trial (NCT02101268), the efficacy and safety of MMB was studied in anemic or thrombocytopenic subjects with myelofibrosis who were previously treated with ruxolitinib (RUX). […] Specifically, anemic or thrombocytopenic myelofibrosis patients who had and were previously treated with (RUX) (for at least 28 days) were studied over 24 weeks for response to MMB versus best available treatment (BAT), primarily RUX (89% of patients) but alternatively no treatment or other standard interventions, after which period all patients could receive extended MMB treatment. Previously treated RUX patients who either required red blood cell transfusions or RUX dose reduction with grade 3 thrombocytopenia, anemia, and/or bleeding at grade 3 or worse, with palpable spleen of at least 5 cm and without grade 2 or greater peripheral neuropathy were included in the trial. There was no lower limit for the required baseline platelet count. The primary endpoint was a reduction by at least 35% in the spleen volume at 24 weeks compared with baseline.\n(§1) FIG. 8A: SIMPLIFY-1 study of MMB in a first line population previously untreated with JAKi. For SIMPLIFY-1, the goal was non-inferiority over ruxolitinib (RUX) (MMB: N=215 subjects, and RUX: N=217 subjects). FIG. 8B: SIMPLIFY-2 study of second line population of anemic or thrombocytopenic subjects previously treated with RUX (red blood cell (RBC) transfusions on RUX=64%. RUX dose adjustment for: thrombocytopenia=21%; anemia/hematoma=35%). For SIMPLIFY-2, the goal was superiority over best available treatment (BAT) (MMB: N=104 subjects, and BAT: N=52 subjects). In both SIMPLIFY-1 and SIMPLIFY: Primary endpoint: >=35% reduction in spleen volume at 24 weeks. Secondary endpoints: Total symptom score (TSS) response at 24 weeks. Effects on RBC transfusion requirements.\nThe SIMPLIFY 2 clinical trial data was reanalyzed for subgroups of subjects having particular baseline platelet counts in the MMB versus BAT arms of the study.\nPatient data was analyzed according to the following baseline platelet count (PLT) subgroups and in particular according to a threshold PLT of 150×10^9/L: 1) PLT<50×10^9/L; 2) 50×10^9/L≤PLT<100×10^9/L; 3) 100×10^9/L≤PLT<150×10^9/L. The reanalyzed data is presented in Table 14 (SIMPLIFY 2)."}, "myelofibrosis [2]": {"system": "myelofibrosis", "assay": "SIMPLIFY-1 Phase 3 trial: transfusion independence and TD to TI conversion", "type": "in vivo, human", "details": "for TI rate Responders / TI rate proportion (Wilson 95% CI) / TI rate Absolute risk difference (Newcombe 95% CI): SIMPLIFY 1, week 24; for TI rate Absolute risk difference (Newcombe 95% CI) / TD to 12w rolling TI Absolute risk difference (Newcombe 95% CI) / TD to W24 TI Absolute risk difference (Newcombe 95% CI): MMB vs Control", "source_text": "The improved outcome from MMB therapy that results from practicing the subject methods can be manifested as an improvement in one or more clinical endpoints (e.g., as described herein), such as anemia response, in spleen response and/or symptom response. By “anemia response” is meant an increase in the patient's hemoglobin level or a patient who was transfusion dependent becoming transfusion independent. Desirably, a minimum increase in hemoglobin of 0.5 g/dL, such as 1.0 g/dL 1.5 g/dL or 2.0 g/dL lasting a minimum of 8 weeks is achieved, which is the level of improvement specified in the International Working Group (IWG) consensus criteria. However, smaller, but still medically significant, increases in hemoglobin are also considered to be within the term “anemia response”. “Transfusion independence” is an anemia endpoint and refers to a subject who required no RBC transfusions over a 12 week period and had no hemoglobin levels less than 8 g/dL to 8.5 g/dL over the 12 week period. In some embodiments, the 12 week period of transfusion independence is the terminal 12 weeks of a 24 week study period. By red blood cell (RBC) transfusion independence rate at week 24 of a study is meant the proportion of subjects who were transfusion independent at week 24, excluding cases associated with clinically overt bleeding.\nIn the SIMPLIFY-1 trial (NCT01969838), the efficacy and safety of MMB versus ruxolitinib (RUX) was studied in patients with myelofibrosis who were naïve to treatment with a JAK inhibitor and a platelet count of ≥50×10^9/L. Patients (N=432) with high risk or intermediate-2 risk or symptomatic intermediate-1 risk myelofibrosis received 24 weeks of treatment with 200 mg MMB once daily or 20 mg RUX twice a day (or per label), after which all patients could receive open-label momelotinib. […] The primary endpoint was a reduction by at least 35% in the spleen volume at 24 weeks compared with baseline.\nas §1\nThe SIMPLIFY 1 clinical trial data was reanalyzed for subgroups of subjects having particular baseline platelet counts in the MMB versus RUX arms of the study.\nPatient data was analyzed according to the following baseline platelet count (PLT) subgroups and in particular according to the threshold PLT of 150×10^9/L: 1) PLT<50×10^9/L; 2) 50×10^9/L≤PLT<100×10^9/L; 3) 100×10^9/L≤PLT<150×10^9/L. The reanalyzed data is presented in Table 13 (SIMPLIFY 1). Selected data is also illustrated in the following figures."}, "[3]": {"details": "SIMPLIFY 1, 50 ≤ PLT < 100 ×10^9/L"}, "[4]": {"details": "SIMPLIFY 1, 100 ≤ PLT < 150 ×10^9/L"}, "[5]": {"details": "SIMPLIFY-1, switch from Transfusion Dependent to Independent"}}}
{"smiles": "Cl.N#CCNC(=O)c1ccc(-c2ccnc(Nc3ccc(N4CCOCC4)cc3)n2)cc1", "note": "[MMB, N-(cyanomethyl)-4-(2-(4-morpholinophenylamino)pyrimidin-4-yl)benzamide]", "values": [{"measurement": "SRR Responders", "setting": "myelofibrosis [1]; 50 ≤ PLT < 100 ×10^9/L", "value": 1}, {"measurement": "SRR proportion (Wilson 95% CI)", "setting": "myelofibrosis [1]; 50 ≤ PLT < 100 ×10^9/L", "value": 0.03}, {"measurement": "SRR Absolute risk difference (Newcombe 95% CI)", "setting": "myelofibrosis [1]; 50 ≤ PLT < 100 ×10^9/L", "value": "−0.02"}, {"measurement": "SRR Responders", "setting": "myelofibrosis [1]; 100 ≤ PLT < 150 ×10^9/L", "value": 3}, {"measurement": "SRR proportion (Wilson 95% CI)", "setting": "myelofibrosis [1]; 100 ≤ PLT < 150 ×10^9/L", "value": 0.13}, {"measurement": "SRR Absolute risk difference (Newcombe 95% CI)", "setting": "myelofibrosis [1]; 100 ≤ PLT < 150 ×10^9/L", "value": 0.03}, {"measurement": "SRR Responders", "setting": "myelofibrosis [1]; ITT", "value": 7}, {"measurement": "SRR proportion (Wilson 95% CI)", "setting": "myelofibrosis [1]; ITT", "value": 0.07}, {"measurement": "SRR Absolute risk difference (Newcombe 95% CI)", "setting": "myelofibrosis [1]; ITT", "value": 0.01}, {"measurement": "SRR Responders", "setting": "myelofibrosis [1]; PLT < 50 ×10^9/L", "value": 0}, {"measurement": "SRR proportion (Wilson 95% CI)", "setting": "myelofibrosis [1]; PLT < 50 ×10^9/L", "value": 0.00}, {"measurement": "patients with transfusion independence promoted and maintained (TI rate)", "setting": "myelofibrosis [2]; SIMPLIFY 1", "value": 66, "unit": "%"}, {"measurement": "TI rate Responders", "setting": "myelofibrosis [2]; 50 ≤ PLT < 100 ×10^9/L", "value": 11}, {"measurement": "TI rate proportion (Wilson 95% CI)", "setting": "myelofibrosis [2]; 50 ≤ PLT < 100 ×10^9/L", "value": 0.61}, {"measurement": "TI rate Absolute risk difference (Newcombe 95% CI)", "setting": "myelofibrosis [2]; 50 ≤ PLT < 100 ×10^9/L", "value": 0.22}, {"measurement": "TI rate Responders", "setting": "myelofibrosis [2]; 100 ≤ PLT < 150 ×10^9/L", "value": 18}, {"measurement": "TI rate proportion (Wilson 95% CI)", "setting": "myelofibrosis [2]; 100 ≤ PLT < 150 ×10^9/L", "value": 0.62}, {"measurement": "TI rate Absolute risk difference (Newcombe 95% CI)", "setting": "myelofibrosis [2]; 100 ≤ PLT < 150 ×10^9/L", "value": 0.17}, {"measurement": "TI rate Responders", "setting": "myelofibrosis [2]; ITT", "value": 143}, {"measurement": "TI rate proportion (Wilson 95% CI)", "setting": "myelofibrosis [2]; ITT", "value": 0.67}, {"measurement": "TI rate Absolute risk difference (Newcombe 95% CI)", "setting": "myelofibrosis [2]; ITT", "value": 0.17}, {"measurement": "TD to 12w rolling TI Responders", "setting": "myelofibrosis [2]; [3]", "value": 4}, {"measurement": "TD to 12w rolling TI proportion (Wilson 95% CI)", "setting": "myelofibrosis [2]; [3]", "value": 0.40}, {"measurement": "TD to W24 TI Responders", "setting": "myelofibrosis [2]; [3]", "value": 5}, {"measurement": "TD to W24 TI proportion (Wilson 95% CI)", "setting": "myelofibrosis [2]; [3]", "value": 0.50}, {"measurement": "TD to 12w rolling TI Absolute risk difference (Newcombe 95% CI)", "setting": "myelofibrosis [2]; [3]", "value": 0.22}, {"measurement": "TD to W24 TI Absolute risk difference (Newcombe 95% CI)", "setting": "myelofibrosis [2]; [3]", "value": 0.32}, {"measurement": "TD to 12w rolling TI Responders", "setting": "myelofibrosis [2]; [4]", "value": 5}, {"measurement": "TD to 12w rolling TI proportion (Wilson 95% CI)", "setting": "myelofibrosis [2]; [4]", "value": 0.45}, {"measurement": "TD to W24 TI Responders", "setting": "myelofibrosis [2]; [4]", "value": 4}, {"measurement": "TD to W24 TI proportion (Wilson 95% CI)", "setting": "myelofibrosis [2]; [4]", "value": 0.36}, {"measurement": "TD to 12w rolling TI Absolute risk difference (Newcombe 95% CI)", "setting": "myelofibrosis [2]; [4]", "value": 0.15}, {"measurement": "TD to W24 TI Absolute risk difference (Newcombe 95% CI)", "setting": "myelofibrosis [2]; [4]", "value": 0.21}, {"measurement": "TD to 12w rolling TI Responders", "setting": "myelofibrosis [2]; SIMPLIFY 1, ITT", "value": 19}, {"measurement": "TD to 12w rolling TI proportion (Wilson 95% CI)", "setting": "myelofibrosis [2]; SIMPLIFY 1, ITT", "value": 0.36}, {"measurement": "TD to W24 TI Responders", "setting": "myelofibrosis [2]; SIMPLIFY 1, ITT", "value": 16}, {"measurement": "TD to W24 TI proportion (Wilson 95% CI)", "setting": "myelofibrosis [2]; SIMPLIFY 1, ITT", "value": 0.30}, {"measurement": "TD to 12w rolling TI Absolute risk difference (Newcombe 95% CI)", "setting": "myelofibrosis [2]; SIMPLIFY 1, ITT", "value": 0.11}, {"measurement": "TD to W24 TI Absolute risk difference (Newcombe 95% CI)", "setting": "myelofibrosis [2]; SIMPLIFY 1, ITT", "value": 0.13}, {"measurement": "Week 24 TI rate", "setting": "myelofibrosis [2]; SIMPLIFY 1, ITT, all patients", "value": 67, "unit": "%"}, {"measurement": "Week 24 TI rate", "setting": "myelofibrosis [2]; SIMPLIFY 1, ITT, platelets 50-100 (subgroup 2)", "value": 61, "unit": "%"}, {"measurement": "Week 24 TI rate", "setting": "myelofibrosis [2]; SIMPLIFY 1, ITT, platelets 100-150 (subgroup 3)", "value": 62, "unit": "%"}, {"measurement": "Week 24 TI rate", "setting": "myelofibrosis [2]; SIMPLIFY 1, baseline TSS ≥ 6, all patients", "value": 67, "unit": "%"}, {"measurement": "Week 24 TI rate", "setting": "myelofibrosis [2]; SIMPLIFY 1, baseline TSS ≥ 6, platelets 50-100 (subgroup 2)", "value": 64, "unit": "%"}, {"measurement": "Week 24 TI rate", "setting": "myelofibrosis [2]; SIMPLIFY 1, baseline TSS ≥ 6, platelets 100-150 (subgroup 3)", "value": 68, "unit": "%"}, {"measurement": "Week 24 TI rate", "setting": "myelofibrosis [2]; SIMPLIFY 1, baseline TSS ≥ 10, all patients", "value": 67, "unit": "%"}, {"measurement": "Week 24 TI rate", "setting": "myelofibrosis [2]; SIMPLIFY 1, baseline TSS ≥ 10, platelets 50-100 (subgroup 2)", "value": 64, "unit": "%"}, {"measurement": "Week 24 TI rate", "setting": "myelofibrosis [2]; SIMPLIFY 1, baseline TSS ≥ 10, platelets 100-150 (subgroup 3)", "value": 68, "unit": "%"}, {"measurement": "≥8 week transfusion independence rate", "setting": "myelofibrosis [2]; [5]", "value": 58.5, "unit": "%"}, {"measurement": "≥12 week transfusion independence rate", "setting": "myelofibrosis [2]; [5]", "value": 49.1, "unit": "%"}]}
